Results: DBAASP
≈ marks a conversion by molar mass, not a printed value.

Legend:
Experiment in all cases: ≥ marks a high value that may be exact or a test limit, other limits are often not marked, values filed in µg/mL are converted to µM
[1] = system: Candida albicans ATCC 2002
[2] = system: Escherichia coli ATCC 25922
[3] = system: Pseudomonas aeruginosa CMCCB 10104
[4] = system: Staphylococcus aureus ATCC 25923
[5] = system: Candida albicans NCPF 1467
[6] = system: Escherichia coli NCTC 10418
[7] = system: Staphylococcus aureus NCTC 10788
[8] = system: Escherichia coli ATCC 25726
Bacillus subtilis = system: Bacillus subtilis
[9] = system: Escherichia coli DH5alpha
[10] = system: Pseudomonas aeruginosa ATCC 27853

MIC [1] [µM] | MIC [2] [µM] | MIC [3] [µM] | MIC [4] [µM] | SMILES | other results
≥ 140 | > 140 | ≥ 140 | > 140 | CC[C@H](C)[C@H](NC(=O)CNC(=O)[C@H](CS)NC(=O)[C@H](Cc1ccccc1)NC(=O)[C@H](CCCCN)NC(=O)[C@H](CCCN=C(N)N)NC(=O)[C@@H]1CCCN1C(=O)[C@H](CCCN=C(N)N)NC(=O)[C@H](CC(=O)O)NC(=O)[C@@H]1CCCN1C(=O)[C@H](C)N)C(=O)N[C@@H](CC(C)C)C(=O)NCC(=O)O [APDRPRKFCGILG] | –
24.1 (≈ 47 µg/mL) | 12 (≈ 23.5 µg/mL) | 24.1 (≈ 47 µg/mL) | > 24.1 | CC[C@H](C)[C@H](NC(=O)[C@H](CC(N)=O)NC(=O)[C@@H](NC(=O)[C@H](C)N)[C@@H](C)O)C(=O)N1CCC[C@H]1C(=O)N[C@@H](Cc1ccccc1)C(=O)N[C@@H](CCCCN)C(=O)N[C@H](C(=O)N[C@@H](Cc1cnc[nH]1)C(=O)N[C@@H](Cc1ccccc1)C(=O)N[C@@H](CCCN=C(N)N)C(=O)N[C@H]1CSSC[C@@H](C(=O)O)NC(=O)[C@H](Cc2ccccc2)NC(=O)[C@H](C)NC(=O)[C@H](C)NC(=O)[C@H](CCCCN)NC1=O)C(C)C [ATNIPFKVHFRCKAAFC] | –
≥ 105 | > 105 | ≥ 105 | > 105 | CSCC[C@H](NC(=O)[C@H](CCCCN)NC(=O)[C@@H](NC(=O)[C@H](CCC(=O)O)NC(=O)[C@H](CCCCN)NC(=O)[C@H](CCCCN)NC(=O)[C@H](CCCCN)NC(=O)[C@H](CCCCN)NC(=O)[C@H](CC(C)C)NC(=O)[C@H](CCSC)NC(=O)[C@@H](N)CCC(=O)O)C(C)C)C(=O)N[C@@H](CCC(=O)O)C(=O)N[C@@H](CCCN=C(N)N)C(=O)N[C@@H](CCCCN)C(=O)N[C@H](C(=O)O)[C@@H](C)O [EMLKKKKEVKMERKT] | –
≥ 64.9 | > 64.9 | ≥ 64.9 | > 64.9 | CC[C@H](C)[C@H](NC(=O)[C@H](Cc1ccc(O)cc1)NC(=O)[C@H](CO)NC(=O)[C@H](CS)NC(=O)[C@H](Cc1ccccc1)NC(=O)[C@H](CC(C)C)NC(=O)[C@H](CC(N)=O)NC(=O)[C@H](CCC(=O)O)NC(=O)[C@H](CCSC)NC(=O)[C@H](CC(C)C)NC(=O)[C@@H](NC(=O)[C@@H](NC(=O)[C@H](CC(=O)O)NC(=O)[C@H](CCC(=O)O)NC(=O)[C@H](CCC(=O)O)NC(=O)[C@H](C)NC(=O)[C@H](CC(N)=O)NC(=O)[C@@H](N)CCC(=O)O)[C@@H](C)CC)C(C)C)C(=O)N[C@H](C(=O)NCC(=O)N[C@@H](CO)C(=O)N[C@@H](C)C(=O)N[C@@H](CC(=O)O)C(=O)N[C@@H](CO)C(=O)N[C@@H](Cc1ccccc1)C(=O)N[C@@H](Cc1c[nH]c2ccccc12)C(=O)N[C@H](C(=O)O)[C@@H](C)O)C(C)C [ENAEEDIVLMENLFCSYIVGSADSFWT] | –
≥ 101 | > 101 | ≥ 101 | > 101 | CC[C@H](C)[C@H](NC(=O)[C@H](CC(N)=O)NC(=O)[C@H](Cc1ccccc1)NC(=O)[C@H](CCSC)NC(=O)[C@H](CC(N)=O)NC(=O)[C@@H](N)CCC(=O)O)C(=O)N[C@@H](CCCCN)C(=O)N[C@@H](CO)C(=O)N[C@@H](CO)C(=O)N[C@H](C(=O)N[C@@H](CCC(=O)O)C(=O)N[C@@H](CO)C(=O)N[C@@H](CC(=O)O)C(=O)N[C@@H](CO)C(=O)N[C@@H](Cc1ccccc1)C(=O)N[C@@H](Cc1c[nH]c2ccccc12)C(=O)NCC(=O)O)C(C)C [ENMFNIKSSVESDSFWG] | –
– | – | – | – | CC[C@H](C)[C@H](NC(=O)[C@H](CC(C)C)NC(=O)[C@H](CCCCN)NC(=O)[C@H](CCCCN)NC(=O)[C@@H](NC(=O)[C@H](CC(C)C)NC(=O)[C@H](CCCCN)NC(=O)[C@@H]1CCCN1C(=O)[C@@H](NC(=O)[C@H](CCSC)NC(=O)CNC(=O)[C@H](CC(C)C)NC(=O)[C@@H](N)Cc1ccccc1)[C@@H](C)CC)[C@@H](C)CC)C(=O)N[C@@H](CCCCN)C(=O)N[C@@H](C)C(=O)N[C@@H](Cc1ccccc1)C(=O)N[C@@H](CCCCN)C(=O)O [FLGMIPKLIKKLIKAFK] | MIC [5]: 2.5 µM (≈ 4.97 µg/mL); MIC [6]: 5 µM (≈ 9.94 µg/mL); MIC [7]: 5 µM (≈ 9.94 µg/mL)
– | – | – | – | CC[C@H](C)[C@H](NC(=O)[C@H](C)NC(=O)[C@H](C)NC(=O)[C@@H]1CCCN1C(=O)[C@@H](NC(=O)[C@H](CC(C)C)NC(=O)[C@H](CO)NC(=O)[C@H](CC(C)C)NC(=O)[C@@H](N)Cc1ccccc1)[C@@H](C)CC)C(=O)N[C@@H](CO)C(=O)N[C@@H](C)C(=O)N[C@H](C(=O)N[C@@H](CO)C(=O)N[C@@H](C)C(=O)N[C@@H](CC(C)C)C(=O)N[C@@H](C)C(=O)N[C@@H](CC(N)=O)C(=O)N[C@@H](Cc1cnc[nH]1)C(N)=O)C(C)C [FLSLIPAAISAVSALANH] | MIC [5]: ≥ 132 µM; MIC [6]: ≥ 264 µM; MIC [7]: ≥ 33 µM
– | – | – | – | CC[C@H](C)[C@H](NC(=O)[C@H](Cc1cnc[nH]1)NC(=O)[C@@H]1CCCN1C(=O)[C@@H](NC(=O)[C@H](CC(C)C)NC(=O)[C@H](CO)NC(=O)[C@H](CC(C)C)NC(=O)[C@@H](N)Cc1ccccc1)[C@@H](C)CC)C(=O)N[C@H](C(=O)N[C@@H](CO)C(=O)NCC(=O)N[C@H](C(=O)N[C@@H](C)C(=O)N[C@@H](C)C(=O)N[C@@H](CC(C)C)C(=O)N[C@@H](C)C(=O)N[C@@H](CC(N)=O)C(=O)N[C@@H](Cc1cnc[nH]1)C(=O)N[C@@H](CC(C)C)C(N)=O)C(C)C)C(C)C [FLSLIPHIVSGVAALANHL] | MIC [5]: ≥ 200 µM; MIC [6]: ≥ 200 µM; MIC [7]: ≥ 200 µM
2.03 (≈ 7.9 µg/mL) | 4.06 (≈ 15.8 µg/mL) | 4.06 (≈ 15.8 µg/mL) | 4.06 (≈ 15.8 µg/mL) | CC[C@H](C)[C@H](NC(=O)[C@H](CC(C)C)NC(=O)[C@H](CCC(N)=O)NC(=O)[C@@H](NC(=O)[C@H](C)NC(=O)CNC(=O)[C@H](CCCCN)NC(=O)[C@@H](NC(=O)[C@H](CC(C)C)NC(=O)[C@@H](NC(=O)[C@H](Cc1ccccc1)NC(=O)[C@@H](NC(=O)CN)C(C)C)[C@@H](C)O)[C@@H](C)CC)[C@@H](C)O)C(=O)NCC(=O)N[C@@H](CCCCN)C(=O)N[C@H](C(=O)N[C@@H](CC(C)C)C(=O)NCC(=O)N[C@@H](CCCCN)C(=O)N[C@@H](CCC(=O)O)C(=O)N[C@@H](CC(C)C)C(=O)NCC(=O)N[C@@H](CCCCN)C(=O)N[C@H](C(=O)NCC(=O)N[C@@H](CC(C)C)C(=O)N[C@@H](CCC(=O)O)C(=O)N[C@H](C(=O)N[C@@H](CCSC)C(=O)N[C@@H](C)C(=O)N[C@H]1CSSC[C@@H](C(=O)O)NC(=O)[C@H](CCC(N)=O)NC(=O)[C@H](CCCCN)NC(=O)[C@H]([C@@H](C)O)NC(=O)[C@H]([C@@H](C)CC)NC(=O)[C@H](CCCCN)NC1=O)[C@@H](C)CC)[C@@H](C)O)[C@@H](C)O [GVFTLIKGATQLIGKTLGKELGKTGLEIMACKITKQC] | –
– | – | – | 40 (≈ 116 µg/mL) | CC[C@H](C)[C@H](N)C(=O)N[C@H](C(=O)N[C@H](C(=O)N1CCC[C@H]1C(=O)N1CCC[C@H]1C(=O)N[C@H](C(=O)N[C@H](C(=O)N[C@@H](CCCCN)C(=O)N[C@@H](CC(=O)O)C(=O)N[C@H](C(=O)N[C@@H](CC(C)C)C(=O)N[C@@H](CCCCN)C(=O)N[C@@H](CCCCN)C(=O)N[C@@H](Cc1ccccc1)C(=O)N[C@@H](Cc1ccccc1)C(=O)N[C@@H](CCCCN)C(=O)NCC(=O)NCC(=O)N[C@H](C(=O)N[C@@H](C)C(=O)NCC(=O)N[C@H](C(=O)N[C@@H](CCSC)C(=O)NCC(=O)N[C@@H](CCCCN)C(=O)N[C@@H](CO)C(=O)N[C@@H](CCC(N)=O)C(=O)O)C(C)C)[C@@H](C)CC)[C@@H](C)O)[C@@H](C)CC)[C@@H](C)CC)[C@@H](C)CC)[C@@H](C)O [ITIPPIIKDTLKKFFKGGIAGVMGKSQ] | MIC [8]: ≥ 80 µM
≥ 64.3 | > 64.3 | ≥ 64.3 | > 64.3 | CC[C@H](C)[C@H](NC(=O)[C@H](C)NC(=O)[C@@H](N)C(C)C)C(=O)N[C@@H](Cc1ccc(O)cc1)C(=O)NCC(=O)N[C@@H](CCCN=C(N)N)C(=O)N[C@@H](CC(=O)O)C(=O)N[C@@H](CC(=O)O)C(=O)N[C@@H](CCCN=C(N)N)C(=O)N[C@@H](CO)C(=O)N[C@@H](CC(=O)O)C(=O)N[C@H](C(=O)N[C@H]1CSSC[C@@H](C(=O)N[C@@H](CC(=O)O)C(=O)N[C@H](C(=O)N[C@@H](Cc2ccc(O)cc2)C(=O)O)[C@@H](C)O)NC(=O)[C@H](C(C)C)NC(=O)[C@H](CC(C)C)NC(=O)[C@H](Cc2c[nH]c3ccccc23)NC(=O)[C@H](CC(N)=O)NC(=O)[C@H](Cc2cnc[nH]2)NC(=O)[C@H](CCC(N)=O)NC(=O)[C@H](C(C)C)NC(=O)[C@H](CCC(N)=O)NC(=O)[C@H](CCCN=C(N)N)NC1=O)C(C)C [VAIYGRDDRSDVCRQVQHNWLVCDTY] | –
– | – | – | 200 (≈ 326 µg/mL) | CC[C@H](C)[C@H](NC(=O)[C@H](Cc1ccccc1)NC(=O)[C@@H](NC(=O)[C@H](Cc1ccccc1)NC(=O)[C@H](CCCN=C(N)N)NC(=O)[C@H](CCCCN)NC(=O)[C@H](CCCN=C(N)N)NC(=O)[C@H](CCCCN)NC(=O)[C@H](Cc1ccccc1)NC(=O)[C@H](CC(C)C)NC(=O)[C@@H](NC(=O)[C@@H](N)Cc1ccc(O)cc1)C(C)C)[C@@H](C)CC)C(=O)O [YVLFKRKRFIFI] | MIC (Bacillus subtilis): ≥ 200 µM; MIC [9]: ≥ 50 µM; MIC [10]: > 200 µM
